From ChEMBL document CHEMBL3352114, “Synthesis and biological evaluation of unnatural derivatives of narciclasine: 7-aza-nornarciclasine and its N-oxide” (Bioorg Med Chem Lett, 2014) come the findings set out here.

What all share (format): functional, cell-based
Experiment [1] is described as follows: Cytotoxicity against human BxPC3 cells. The conditions noted are these: BXPC-3.
Experiment [2] deals with HeLa. As to the kind of experiment: Cytotoxicity against human HeLa cells after 48 hrs by MTT assay.
The test system of experiment [3] is MCF7. In words: Cytotoxicity against human MCF7 cells after 48 hrs by MTT assay. On the technique in general: Tetrazolium assays rely on reduction of a dye to a coloured formazan, in cell work by metabolically active cells.
Experiment [4] concerns NCI-H460. As to the kind of experiment: Cytotoxicity against human NCI-H460 cells.
The test system of experiment [5] is DU-145. In words: Cytotoxicity against human DU145 cells.
Where [6] appears, read: Homo sapiens, HeLa, 48 h, read-out: IC50.
[7] abbreviates: Homo sapiens, MCF7, 48 h, read-out: IC50.

For the compound `CC(=O)OC[C@H]1[C@H](O)[C@@H](O)[C@@H](O)[C@@H]2NC(=O)c3c(cc4c(c3O)OCO4)[C@@H]12`, the IC50 is 70 nM in experiment [1], under 400 nM in experiment [2] (setting [6]) and under 400 nM in experiment [3] (setting [7]).

As for `O=C(OC[C@H]1[C@H](O)[C@@H](O)[C@@H](O)[C@@H]2NC(=O)c3c(cc4c(c3O)OCO4)[C@@H]12)c1ccccc1`, the IC50 in experiment [4] is 30 nM; in experiment [1], 10 nM; in experiment [2] (setting [6]), under 400 nM; in experiment [5] it was 10 nM; in experiment [3] (setting [7]) it was under 400 nM.

As for `O=C1N[C@@H]2C(=C[C@H](O)[C@@H](O)[C@H]2O)c2cccnc21` [listing 1 of 2 here], the half-inhibitory concentration (IC50) in experiment [2] (setting [6]) and in experiment [3] (setting [7]) was over 100000 nM in each case.

With `O=C1N[C@@H]2C(=C[C@H](O)[C@@H](O)[C@H]2O)c2ccc[n+]([O-])c21`, the IC50 in experiment [2] (setting [6]) and in experiment [3] (setting [7]) was over 100000 nM each time.

With `O=C1N[C@@H]2C(=C[C@H](O)[C@@H](O)[C@H]2O)c2cccnc21` [listing 2 of 2 here], the IC50 result in experiment [2] (hela) and in experiment [3] (mcf7) was “Not Active” each time.

As for `O=C1N[C@@H]2C(=C[C@H](O)[C@@H](O)[C@H]2O)c2cc3c(c(O)c21)OCO3` [NARCICLASINE], the IC50 was determined as 50 nM in experiment [4], 50 nM in experiment [1] and 30 nM in experiment [5].

In general, IC50 refers to the concentration that gives 50% inhibition.
